Data set [1] addresses T1, G-protein coupled receptor 55 (Homo sapiens, UniProt Q9Y2T6). Put plainly: Antagonist activity at beta-galactosidase fused human GPR55 expressed in CHO cells assessed as inhibition of LPI-induced receptor activation by measuring beta-arrestin 2 recruitment at upto 10 uM incubated for 90 mins by PathHunter chemiluminescence based assay. It counts as cell-based. (Activated receptors often draw arrestin, which recruitment assays turn into a signal.)

A further data set addresses Cannabinoid receptor 2 (Homo sapiens, UniProt P34972). Put plainly: Displacement of [3H]CP55940 from human CB2 receptor expressed in HEK293 cell membranes assessed as inhibition constant incubated for 90 mins by liquid scintillation spectrometry analysis. Details: species or system Membrane.
For a further data set, the target named is Cannabinoid receptor 1 (Homo sapiens, UniProt P21554). Put plainly: Displacement of [3H]CP55940 from human CB1 receptor expressed in HEK293 cell membranes assessed as inhibition constant incubated for 90 mins by liquid scintillation spectrometry analysis. On the set-up: species or system Membrane.
Data set [2] has as its target T1, G-protein coupled receptor 55. Put plainly: Antagonist activity at beta-galactosidase fused human GPR55 expressed in CHO cells assessed as inhibition of LPI-induced receptor activation by measuring beta-arrestin 2 recruitment incubated for 90 mins by PathHunter chemiluminescence based assay. Format: cell-based.
The target is the same in data set [3]. Put plainly: Antagonist activity at human GPR55 expressed in HEK293 cells coexpressing serum response element assessed as inhibition of LPI-induced MAPK/ERK signalling pathway by measuring SRE response incubated for 5 hrs in serum-free medium by luciferin based bioluminescence analysis. Format: cell-based.
For data set [4] the target is unchanged. Put plainly: Inverse agonist activity at human GPR55 expressed in HEK293 cells coexpressing serum response element assessed as reduction in MAPK/ERK signalling pathway by measuring SRE response incubated for 5 hrs in serum-free medium by luciferin based bioluminescence analysis. Format: cell-based.
For another data set, the system named is CHO. Put plainly: Cytotoxicity against CHO cells assessed as reduction in cell viability at upto 10 uM incubated for 24 hrs by XTT assay. It counts as toxicity, cell-based, Cricetulus griseus. Conditions: chinese hamster.
In data set [5] the target is T1, G-protein coupled receptor 55. Put plainly: Antagonist activity at human GPR55 expressed in human U2OS cells assessed as inhibition of LPI-induced receptor activation by measuring beta-arrestin 2 recruitment preincubated for 30 mins followed by LPI addition and measured after 75 mins by microplate reader analysis. Format: cell-based.

The structures appear in SMILES notation. Activity calls are given as the source filed them. The calls are words filed in the database; no cut-off is given here.

Cannabinoid receptor 2, sequence (P34972 whole entry): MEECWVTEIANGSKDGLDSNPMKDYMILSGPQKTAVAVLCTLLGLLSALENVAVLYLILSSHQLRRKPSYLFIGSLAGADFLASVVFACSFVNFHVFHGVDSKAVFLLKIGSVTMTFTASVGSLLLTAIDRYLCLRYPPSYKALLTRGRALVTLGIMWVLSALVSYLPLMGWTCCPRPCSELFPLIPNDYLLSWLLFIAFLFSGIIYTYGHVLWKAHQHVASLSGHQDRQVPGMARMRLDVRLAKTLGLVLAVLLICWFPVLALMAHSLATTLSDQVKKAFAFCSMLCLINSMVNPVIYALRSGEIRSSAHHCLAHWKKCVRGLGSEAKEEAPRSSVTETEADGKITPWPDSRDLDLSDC
T1 sequence (Q9Y2T6 whole entry, the tested form may be a part): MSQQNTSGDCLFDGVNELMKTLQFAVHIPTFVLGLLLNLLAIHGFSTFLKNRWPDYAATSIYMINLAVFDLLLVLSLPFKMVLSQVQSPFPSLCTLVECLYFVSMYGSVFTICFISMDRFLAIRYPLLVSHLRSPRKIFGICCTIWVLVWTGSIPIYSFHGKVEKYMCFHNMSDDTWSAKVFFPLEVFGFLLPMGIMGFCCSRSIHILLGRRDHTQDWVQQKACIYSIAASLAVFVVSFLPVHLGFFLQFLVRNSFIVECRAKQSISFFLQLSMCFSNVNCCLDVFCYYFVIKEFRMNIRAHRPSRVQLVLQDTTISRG
Cannabinoid receptor 1, sequence (P21554 whole entry, the tested form may be a part): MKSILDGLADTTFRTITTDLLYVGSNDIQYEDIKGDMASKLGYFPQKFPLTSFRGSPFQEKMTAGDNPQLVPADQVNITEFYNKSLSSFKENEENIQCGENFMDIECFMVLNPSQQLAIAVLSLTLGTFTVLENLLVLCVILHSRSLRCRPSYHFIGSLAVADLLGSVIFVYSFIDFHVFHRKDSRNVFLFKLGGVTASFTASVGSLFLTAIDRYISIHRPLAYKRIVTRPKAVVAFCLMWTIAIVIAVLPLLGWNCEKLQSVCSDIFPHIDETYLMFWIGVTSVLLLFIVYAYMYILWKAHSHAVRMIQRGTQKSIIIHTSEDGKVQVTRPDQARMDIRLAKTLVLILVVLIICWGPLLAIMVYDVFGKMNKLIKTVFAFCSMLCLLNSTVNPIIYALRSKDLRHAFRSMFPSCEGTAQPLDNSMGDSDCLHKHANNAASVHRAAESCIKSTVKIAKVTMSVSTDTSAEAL

`Cc1cc(C)c2nc(-c3ccccn3)cc(C(=O)N3CCN(C(=O)c4ccco4)CC3)c2c1`: the inhibition entry in data set [1] is “inactive”. Take `Cn1ncc2ncnc(N3CCN(C(=O)c4ccco4)CC3)c21`: in data set [1], the inhibition result was “inactive”. Broadly, the Ki is the dissociation constant of the complex between target and ligand, obtained from inhibition or displacement. Take `Cc1c(Cl)nc(C)n(C)c1=O`: the Ki on Cannabinoid receptor 2 and on Cannabinoid receptor 1 was more than 4 µM each time. For the compound `Cc1ccc2c(c1)sc1nc(C)nc(N3CCN(C(=O)c4ccco4)CC3)c12`, the Ki on Cannabinoid receptor 2 and on Cannabinoid receptor 1 was more than 4 µM throughout. What is called IC50 is the concentration that gives 50% inhibition. Take `Cc1nc(N2CCN(C(=O)c3ccco3)CC2)c2c3c(sc2n1)CCCC3`: the 50% inhibitory concentration (IC50) amounted to 2.02 µM in data set [2] and 7.5 µM in data set [3].

For `O=C(c1ccco1)N1CCN(c2nc(CCl)nc3sc4c(c23)CCCC4)CC1`, the Ki at Cannabinoid receptor 2 and at Cannabinoid receptor 1 was more than 4 µM throughout. For `COCCc1nc(N2CCN(C(=O)c3ccco3)CC2)c2c3c(sc2n1)CC(C)(C)CC3`, in data set [1], the inhibition result was “inactive”. The Ki on Cannabinoid receptor 2 and on Cannabinoid receptor 1 was more than 4 µM throughout. Take `CC1(C)CCc2c(sc3nc(CN4CCOCC4)nc(N4CCN(C(=O)c5ccco5)CC4)c23)C1`: the inhibition result in data set [1] is “inactive”.

As for `Cc1c(N2CCN(C(=O)c3ccco3)CC2)nc(C)n(C)c1=O`, the inhibition entry in data set [1] is “inactive”. Consider `O=C(c1ccco1)N1CCN(c2ncnn3cccc23)CC1`, for which the inhibition entry in data set [1] is “inactive”.

With `CC1(C)CCc2c(sc3nc(CO)nc(N4CCN(C(=O)c5ccco5)CC4)c23)C1`, the Ki at Cannabinoid receptor 2 and on Cannabinoid receptor 1 was more than 4 µM in each case. Consider `O=C(c1ccco1)N1CCN(c2ncnc3sc4c(c23)CCCC4)CC1`, for which, in data set [2], the IC50 stood at 0.68 µM. Besides, the Ki at Cannabinoid receptor 2 and at Cannabinoid receptor 1 was more than 4 µM in each case. Usually EC50 stands for the concentration at which the effect is half-maximal. As to `Cc1nc(N2CCN(C(=O)c3ccco3)CC2)c2c3c(sc2n1)CC(C)(C)CC3`, the EC50 in data set [4] came out at 0.9 µM. For the same compound, the values for the IC50 in data set [2] and in data set [3] were 0.28 µM and 1.5 µM, respectively. The Activity entry with CHO is listed as “Non-Toxic”. In addition, the Ki on Cannabinoid receptor 2 and at Cannabinoid receptor 1 was more than 4 µM in each case. Take `O=C(c1ccco1)N1CCN(c2nc(C3CC3)nc3sc4c(c23)CCCC4)CC1`: the IC50 in data set [5] turned out to be 0.86 µM. In the case of `Cc1nc(O)c(C)c(N2CCN(C(=O)c3ccco3)CC2)n1`, the inhibition result in data set [1] was “inactive”.

Take `CC1(C)CCc2c(sc3nc(CCN4CCOCC4)nc(N4CCN(C(=O)c5ccco5)CC4)c23)C1`: the inhibition result in data set [1] is “inactive”. Moreover, the Ki at Cannabinoid receptor 2 and at Cannabinoid receptor 1 was more than 4 µM each time. Take `Cc1nc(N2CCCN(C(=O)c3ccco3)CC2)c2c3c(sc2n1)CCCC3`: the Ki at Cannabinoid receptor 2 and at Cannabinoid receptor 1 was more than 4 µM each time.

As for `Cc1nc(N2CCN(C(=O)c3ccco3)CC2)c2c(n1)sc1ccccc12`, the Ki at Cannabinoid receptor 2 and on Cannabinoid receptor 1 was more than 4 µM throughout. As to `O=C(c1ccco1)N1CCN(c2ncnc3sc(-c4ccccc4)cc23)CC1`, the inhibition result in data set [1] is “inactive”. With `O=c1cnc(Cl)c[nH]1`, the Ki on Cannabinoid receptor 2 and at Cannabinoid receptor 1 was more than 4 µM throughout. Consider `O=C(c1ccco1)N1CCN(c2c[nH]c(=O)cn2)CC1`, for which the inhibition result in data set [1] was “inactive”. For the compound `Cc1nc(Nc2ccc(S(=O)(=O)Nc3onc(C)c3C)cc2)c2c3c(sc2n1)CC(C)(C)CC3`, in data set [2], the IC50 is 3.35 µM.

For the compound `Cc1nc(O)c(C)c(Cl)n1`, the Ki at Cannabinoid receptor 2 and at Cannabinoid receptor 1 was more than 4 µM throughout. For `Cc1nc(N2CCCN(C(=O)c3ccco3)CC2)c2c3c(sc2n1)CC(C)(C)CC3`, the Ki at Cannabinoid receptor 2 and on Cannabinoid receptor 1 was more than 4 µM each time. As to `Cc1nc(Nc2ccc(S(=O)(=O)Nc3onc(C)c3C)cc2)c2c3c(sc2n1)CCCC3`, in data set [2], the IC50 is 29.3 µM. For the compound `COCc1nc(N2CCN(C(=O)c3ccco3)CC2)c2c3c(sc2n1)CC(C)(C)CC3`, the inhibition result in data set [1] is “inactive”. The Ki at Cannabinoid receptor 2 and at Cannabinoid receptor 1 was more than 4 µM in each case. Take `Cc1cc(C)c2nc(-c3ccccn3)cc(C(=O)O)c2c1`: the Ki on Cannabinoid receptor 2 and on Cannabinoid receptor 1 was more than 4 µM throughout.

Regarding `Cc1nc(N2CCN(C(=O)c3ccco3)CC2)c2c3c(sc2n1)CC(C)CC3` (stereo not drawn), the IC50 in data set [5] stood at 0.43 µM.

`CC1(C)CCc2c(sc3nc(CCO)nc(N4CCN(C(=O)c5ccco5)CC4)c23)C1`: the IC50 in data set [2] is 11.7 µM.

For the origin of these results see ChEMBL document CHEMBL5223166, “Thienopyrimidine Derivatives as GPR55 Receptor Antagonists: Insight into Structure-Activity Relationship” (ACS Med Chem Lett, 2023).
